# Data published in patent US20190117653A1, “SYSTEMS AND METHODS FOR TREATING BACTERIAL INFECTION” (priority 2016, published 2019).
# Like-named read-outs stand apart in the source and are kept apart here.
# What was measured:
# [1] = test system: isolated rabbit Purkinje fibers
# QTc interval [2] = test: single-dose ECG study in healthy human volunteers (1.6 and 3.2 mg/kg); format: in vivo; settings: 3.2 mg/kg infused over 30 minutes
# Description: Based on this, a single-dose ECG-study was conducted in healthy human volunteers, where 1.6 mg/kg and 3.2 mg/kg iclaprim was infused over 30 minutes. […] Maximal increases coincided with Cmax levels and were rapidly reversible. Weight-based dosing with 1.6 mg/kg was thus assessed as acceptable for clinical purposes, whereas weight-based dosing at 3.2 mg/kg was associated with relevant QTc prolongations (>60 msec) and nonspecific T-wave alterations, and was not used for further clinical studies.
# E. coli ATCC 25922 = test: MIC with/without bovine pulmonary surfactant; format: cell-based; settings: Escherichia coli
# Description: (§1) Antibacterial susceptibility testing was measured by JMI Labs (North Liberty, Iowa, USA). […] These clinical isolates were collected from US (n=4), Mexico (n=2), and Italy (n=1). Susceptibility testing was performed by broth microdilution in accordance with the Clinical and Laboratory and Standards Institute (CLSI) guidelines M07-A10 (2015) and the standard operating procedures at JMI laboratories. Minimum inhibitory concentrations (MICS) were based on CLSI criteria (2015). There are no published breakpoints for iclaprim. E. coli, K. pneumoniae, M. catarrhalis, E. faecalis, and S. aureus were tested in cation-adjusted Mueller-Hinton broth (CA-MHB). S. pneumoniae were tested in CA-MHB supplemented with 2.5-5% lysed horse blood, and H. influenza were tested in Haemophilus test medium. Quality control and interpretation of results were performed in accordance with CLSI M100-S26 (2016) methods. QC ranges for iclaprim were those approved by CLSI and published in M100-S26 (2016). Iclaprim and comparator antibiotic MIC results were within the CLSI published ranges against E. coli ATCC 25922, E. faecalis ATCC 29212, E. faecalis ATCC 33186, H. influenzae ATCC 49247, K. pneumoniae ATCC 700603 (ESBL phenotype), S. aureus ATCC 29213, and S. pneumoniae ATCC 49619. Isolates were tested with MIC panels (ThermoFisher Scientific, Cleveland, Ohio, USA) of comparator antibiotics (daptomycin and levofloxacin).
# (§2) Because bovine pulmonary surfactant can introduce cloudiness to the MIC testing media, antimicrobial growth inhibition was also evaluated using the colorimetric metabolic indicator resazurin (Camlab Ltd., Cambridge, UK). […] S. pneumoniae panels were omitted from resazurin analysis because the color change was obscured by the lysed horse blood present in the test medium. Growth inhibition was then evaluated as a visible color change from blue (no growth) to pink (robust growth) and recorded as a MIC1z value.
# (§3) The MICs of iclaprim, levofloxacin, and daptomycin were determined against Gram-positive and Gram-negative isolates.
# (§4) A new vial of bovine pulmonary surfactant (BPS; Survanta®; Abbott Laboratories, Columbus, Ohio) was utilized for each independent experiment. Each vial was mixed thoroughly and a 100 μL aliquot was spread on an agar plate, which was incubated overnight to confirm sterility. […] The concentration of surfactant was expressed in terms of percent volume of Survanta® suspension, which consisted of phospholipid (25 mg/mL) and surfactant proteins (<1 mg/mL) in 0.9% sodium chloride solution (Goerke, 1998). MICs of daptomycin were determined in CAMHB with the Ca^2+ content adjusted to 50 mg/L.
# E. faecalis ATCC 29212 = test: MIC with/without bovine pulmonary surfactant; format: cell-based; settings: Enterococcus faecalis
# Description: as §1, §2, §3, §4
# E. faecalis ATCC 33186 = test: MIC with/without bovine pulmonary surfactant; format: cell-based; settings: Enterococcus faecalis
# Description: as §1, §2, §3, §4
# H. influenzae ATCC 49247 = test: MIC with/without bovine pulmonary surfactant; format: cell-based; settings: Haemophilus influenzae
# Description: as §1, §2, §3, §4
# [3] = test system: M. catarrhalis Clinical Isolate 893806; test: MIC with/without bovine pulmonary surfactant; format: cell-based; settings: Moraxella catarrhalis, 2.5% v/v BPS, read-out: MIC, Resazurin: +BPS
# Description: as §1, §2, §3, §4
# S. aureus ATCC 29213 = test: MIC with/without bovine pulmonary surfactant; format: cell-based; settings: Staphylococcus aureus
# Description: as §1, §2, §3, §4
# [4] = test system: S. aureus Clinical Isolate 825189; test: MIC with/without bovine pulmonary surfactant; format: cell-based; settings: Staphylococcus aureus
# Description: as §1, §2, §3, §4
# S. aureus strain AH1252 = test: neutropenic rat lung infection model; format: in vivo, Staphylococcus aureus
# Description: S. aureus strain AH1252, a thymidine knockout of the MRSA wild type AW6 strain, was utilized for this study. The bacterial strain was diluted in a 2% alginate buffer, which was added dropwise in a ratio of 1:5 into […] to form alginate beads. The alginate beads reduce the efficacy of bacterial clearance similar to that seen in the cystic fibrosis population. A 5.25×10^4 bacterial inoculum was administered to groups of 9 rats, intratracheally, with prepared alginate bacteria suspensions, under isoflurane anesthesia. […] Twelve hours after the last treatment, rats were euthanized and lungs collected for CFU determination.
# QTc interval [5] = settings: human, in vivo
# Description: A second single-dose ECG study was conducted on healthy human volunteers using weight-based doses of 0.4 mg/kg and 0.8 mg/kg iclaprim base infused over 30 minutes and 1.6 mg/kg infused over 60 minutes.
# S. aureus = settings: worldwide surveillance studies; cited from earlier work
smiles,measurement,setting,value
COc1cc(Cc2cnc(N)nc2N)c2c(c1OC)OC(C1CC1)C=C2 (racemic) [Iclaprim],concentration at which action potential duration was increased,[1],above 1 μM
same,QTc prolongation,QTc interval [2],> 60 ms
same,MIC,"E. coli ATCC 25922; ATCC25922, 2.5% v/v BPS, read-out: MIC, CLSI: +BPS",0.5 µg/mL
same,MIC,"E. coli ATCC 25922; ATCC25922, 2.5% v/v BPS, read-out: MIC, Resazurin: +BPS",1 µg/mL
same,MIC,"E. coli ATCC 25922; ATCC25922, no BPS, read-out: MIC, CLSI",0.5 µg/mL
same,MIC,"E. coli ATCC 25922; ATCC25922, no BPS, read-out: MIC, Resazurin",1 µg/mL
same,MIC,"E. faecalis ATCC 29212; ATCC29212, 2.5% v/v BPS, read-out: MIC, Resazurin: +BPS",≤ 0.015 µg/mL
same,MIC,"E. faecalis ATCC 29212; ATCC29212, no BPS, read-out: MIC, Resazurin",≤ 0.015 µg/mL
same,MIC,"E. faecalis ATCC 33186; ATCC33186, 2.5% v/v BPS, read-out: MIC, Resazurin: +BPS",≤ 0.015 µg/mL
same,MIC,"E. faecalis ATCC 33186; ATCC33186, no BPS, read-out: MIC, Resazurin",0.03 µg/mL
same,MIC,"H. influenzae ATCC 49247; ATCC49247, 2.5% v/v BPS, read-out: MIC, Resazurin: +BPS",0.25 µg/mL
same,MIC,"H. influenzae ATCC 49247; ATCC49247, no BPS, read-out: MIC, Resazurin",0.25 µg/mL
same,MIC,[3],8 µg/mL
same,MIC,"S. aureus ATCC 29213; ATCC29213, 2.5% v/v BPS, read-out: MIC, CLSI: +BPS",0.06 µg/mL
same,MIC,"S. aureus ATCC 29213; ATCC29213, 2.5% v/v BPS, read-out: MIC, Resazurin: +BPS",0.06 µg/mL
same,MIC,"S. aureus ATCC 29213; ATCC29213, no BPS, read-out: MIC, CLSI",0.06 µg/mL
same,MIC,"S. aureus ATCC 29213; ATCC29213, no BPS, read-out: MIC, Resazurin",0.06 µg/mL
same,MIC,"[4]; 2.5% v/v BPS, read-out: MIC, CLSI: +BPS",0.12 µg/mL
same,MIC,"[4]; 2.5% v/v BPS, read-out: MIC, Resazurin: +BPS",0.12 µg/mL
same,MIC,"[4]; no BPS, read-out: MIC, CLSI",0.06 µg/mL
same,MIC,"[4]; no BPS, read-out: MIC, Resazurin",0.06 µg/mL
same,72 hour lungs log10CFU/Lung (CFU/gram of lung),S. aureus strain AH1252; 80 mg/kg SC/BID,3.34
same,Change in CFUs from 2 hr. infection controls,S. aureus strain AH1252; 80 mg/kg SC/BID,0.22 log 10 CFU
same,Change in CFUs from 72 hr. infection controls,S. aureus strain AH1252; 80 mg/kg SC/BID,−5.34 log 10 CFU
same,Survival >60 hrs,S. aureus strain AH1252; 80 mg/kg SC/BID (160 mg/kg/day) 3 days,9/9
same,CFU reduction from the 72 hour infection controls,S. aureus strain AH1252; iclaprim 80 mg/kg SC/BID,5.34 log 10 CFU
same,post-infusion QTcF prolongation from baseline (no subject above),QTc interval [5],≤ 60 ms
same,MIC90,S. aureus,0.12 µg/mL
